Test results: patent US5840711A, “Compositions containing lithium inorganic salts and anti-viral drugs and method of treating viral infections such as acquired immunodeficiency syndrome” (priority 1997, dated 1998)
“Also recorded” adds a separate entry of the source.

Assays:
herpes simplex virus = details: in vitro; cited from earlier work
normal bone marrow cells [1] = details: in vitro with normal bone marrow cells (previous work; b10 also in vivo mice); cited from earlier work
normal bone marrow cells [2] = assay: AZT toxicity on normal bone marrow cells in vitro, overall; details: normal bone marrow cells with AZT
Procedure: These studies were performed in vitro with normal bone marrow cells incubated in the presence of AZT and Li-GLA.

non-infected H9 cells = details: 4 days incubation in vitro
Text: Lithium gamma linolenate (LiGLA) for this study was obtained from Enfamol, Kentville, Nova Scotia, Canada.

[3] = test system: CFU-Meg (Megakaryocyte) of normal bone marrow cells; assay: AZT bone marrow toxicity in vitro, CFU-Meg colony formation; format: cell-based
Text: (§1) This is a standard practice.

[4] = test system: BFU-E (Erythroid) of normal bone marrow cells; assay: AZT bone marrow toxicity in vitro, BFU-E colony formation; format: cell-based
Text: as §1

[5] = test system: CFU-GM (Myeloid) of normal bone marrow cells; assay: AZT bone marrow toxicity in vitro, CFU-GM colony formation; format: cell-based
Text: as §1

[6] = test system: H9 cells that are chronically infected with HIV; assay: LiGLA 4 days incubation in vitro with H9 cells chronically infected with HIV; format: cell-based

[Cl-].[Li+] [lithium chloride]
Concentration inhibiting herpes simplex virus replication (herpes simplex virus): 5 to 30 mM | Myelosuppression and marrow toxicity of AZT (normal bone marrow cells [1]): reduced the myelosuppression and marrow toxicity of AZT significantly | Effect on AZT toxicity / colony formation (normal bone marrow cells [2]): there is a reduction in AZT toxicity; however, the values never reach the level of the normal control; also recorded: reduced AZT toxicity but was not effective in increasing cell growth and colony formation

CCCCC/C=C\C/C=C\C/C=C\CCCCC(=O)[O-].[Li+] [Li-GLA, lithium gamma-linolenate]
H9 cells killed (non-infected H9 cells): 20% | CFU-Meg (Megakaryocyte) colonies ([3]; Li-GLA 10 μg/ml): 32.0 ± 3 | CFU-Meg (Megakaryocyte) colonies ([3]; Li-GLA 15 μg/ml): 28.0 ± 4 | CFU-Meg (Megakaryocyte) colonies ([3]; Li-GLA 20 μg/ml): 24.0 ± 3 | BFU-E (Erythroid) colonies ([4]; Li-GLA 10 μg/ml): 50 ± 4 | BFU-E (Erythroid) colonies ([4]; Li-GLA 15 μg/ml): 44 ± 4 | BFU-E (Erythroid) colonies ([4]; Li-GLA 20 μg/ml): 31 ± 3 | CFU-GM (Myeloid) colonies ([5]; Li-GLA 10 μg/ml): 66.5 | CFU-GM (Myeloid) colonies ([5]; Li-GLA 15 μg/ml): 55.5 | CFU-GM (Myeloid) colonies ([5]; Li-GLA 20 μg/ml): 45.0 | H9 cells killed [6]: 90%
